ChEMBL document CHEMBL1134903, “Synthesis and SAR of azalide 3,6-ketal aromatic derivatives as potent Gram-positive and Gram-negative antibacterial agents” (Bioorg Med Chem Lett, 2002)
In brackets after ≈: the same amount, converted by molar mass.

How the values were obtained:
Format in all cases: functional
[1] = tested on: Pasteurella multocida; assay: Minimum inhibitory concentration against Pasteurella multocida
[2] = tested on: Staphylococcus aureus; assay: Effective dose required to inhibit Staphylococcus aureus intraperitoneal (IP) infection model
[3] = tested on: Staphylococcus aureus; assay: Minimum inhibitory concentration against Staphylococcus aureus
[4] = tested on: Staphylococcus aureus; assay: Colony forming units of Staphylococcus aureus intramammary infection (IMI) model was determined at a dose of 15 mg/kg
[5] = tested on: Escherichia coli; assay: Minimum inhibitory concentration against Escherichia coli

In the case of CC[C@H]1OC(=O)[C@H](C)[C@H]2OC3(CCN(CCc4ccc5ccccc5n4)CC3)O[C@](C)(C[C@@H](C)CN[C@H](C)[C@@H](O)[C@]1(C)O)[C@H](O[C@@H]1O[C@H](C)C[C@H](N(C)C)[C@H]1O)[C@H]2C, the MIC [1] is reported as 0.03 µg/mL (≈ 0.0369 µM), the ED50 [2] is reported as 22 mg/kg and the MIC [3] is reported as 0.2 µg/mL (≈ 0.246 µM). The “Log CFU” value [4] was 5.2 and the MIC [5] was 0.78 µg/mL (≈ 0.959 µM).

CC[C@H]1OC(=O)[C@H](C)[C@H]2OC3(CCN(CCc4ccc(Cl)c(Cl)c4)CC3)O[C@](C)(C[C@@H](C)CN[C@H](C)[C@@H](O)[C@]1(C)O)[C@H](O[C@@H]1O[C@H](C)C[C@H](N(C)C)[C@H]1O)[C@H]2C was tested, and the MIC [1] was 0.05 µg/mL (≈ 0.0602 µM), the MIC [3] was 0.39 µg/mL (≈ 0.469 µM) and the MIC [5] was 3.13 µg/mL (≈ 3.77 µM).

CC[C@H]1OC(=O)[C@H](C)[C@H]2OC3(CCN(C(=O)c4c[nH]c5ccccc45)CC3)O[C@](C)(C[C@@H](C)CN[C@H](C)[C@@H](O)[C@]1(C)O)[C@H](O[C@@H]1O[C@H](C)C[C@H](N(C)C)[C@H]1O)[C@H]2C showed an MIC [1] of 0.1 µg/mL (≈ 0.125 µM), an ED50 [2] of 11 mg/kg and an MIC [3] of 0.39 µg/mL (≈ 0.487 µM). It also gave an MIC [5] of 6.25 µg/mL (≈ 7.8 µM).

In the case of CC[C@H]1OC(=O)[C@H](C)[C@H]2OC3(CCN(CCc4ccc(C#N)cc4)CC3)O[C@](C)(C[C@@H](C)CN(C)[C@H](C)[C@@H](O)[C@]1(C)O)[C@H](O[C@@H]1O[C@H](C)C[C@H](N(C)C)[C@H]1O)[C@H]2C, the MIC [1] is reported as 0.03 µg/mL (≈ 0.0374 µM), the ED50 [2] is reported as 22 mg/kg and the MIC [3] is reported as 0.78 µg/mL (≈ 0.974 µM). For the same compound, the MIC [5] was 0.39 µg/mL (≈ 0.487 µM).

In the case of CC[C@H]1OC(=O)[C@H](C)[C@H]2OC3(CCN(CCc4ccccc4)CC3)O[C@](C)(C[C@@H](C)CN(C)[C@H](C)[C@@H](O)[C@]1(C)O)[C@H](O[C@@H]1O[C@H](C)C[C@H](N(C)C)[C@H]1O)[C@H]2C, the MIC [1] is reported as 0.02 µg/mL (≈ 0.0258 µM), the ED50 [2] is reported as greater than 20 mg/kg and the “Log CFU” value [4] is reported as 7.3. The MIC [5] was 0.075 µg/mL (≈ 0.0966 µM).

Compound CC[C@H]1OC(=O)[C@H](C)[C@H]2OC3(CCN(CCc4ccnc5ccccc45)CC3)O[C@](C)(C[C@@H](C)CN(C)[C@H](C)[C@@H](O)[C@]1(C)O)[C@H](O[C@@H]1O[C@H](C)C[C@H](N(C)C)[C@H]1O)[C@H]2C has an MIC [1] of 0.05 µg/mL (≈ 0.0605 µM), an ED50 [2] greater than 20 mg/kg and an MIC [3] of 0.39 µg/mL (≈ 0.472 µM). It also gave an MIC [5] of 1.56 µg/mL (≈ 1.89 µM).

For CC[C@H]1OC(=O)[C@H](C)[C@H]2OC3(CCN(CCc4ccc(Cl)c(Cl)c4)CC3)O[C@](C)(C[C@@H](C)CN(C)[C@H](C)[C@@H](O)[C@]1(C)O)[C@H](O[C@@H]1O[C@H](C)C[C@H](N(C)C)[C@H]1O)[C@H]2C, the MIC [1] was 0.05 µg/mL (≈ 0.0592 µM), the MIC [3] was 0.2 µg/mL (≈ 0.237 µM) and the MIC [5] was 50 µg/mL (≈ 59.2 µM).

With CC[C@H]1OC(=O)[C@H](C)[C@H]2OC3(CCN(CCc4ccccc4OC)CC3)O[C@](C)(C[C@@H](C)CN(C)[C@H](C)[C@@H](O)[C@]1(C)O)[C@H](O[C@@H]1O[C@H](C)C[C@H](N(C)C)[C@H]1O)[C@H]2C the MIC [1] was 0.03 µg/mL (≈ 0.0372 µM), the ED50 [2] was greater than 20 mg/kg and the MIC [3] was 0.39 µg/mL (≈ 0.484 µM). For the same compound, the MIC [5] was 0.1 µg/mL (≈ 0.124 µM).

For CC[C@H]1OC(=O)[C@H](C)[C@H]2OC3(CCN(C(=O)c4cccs4)CC3)O[C@](C)(C[C@@H](C)CN(C)[C@H](C)[C@@H](O)[C@]1(C)O)[C@H](O[C@@H]1O[C@H](C)C[C@H](N(C)C)[C@H]1O)[C@H]2C, the MIC [1] was 0.05 µg/mL (≈ 0.0639 µM), the MIC [2] was greater than 20 µg/mL and the MIC [5] was 1.56 µg/mL (≈ 1.99 µM).

With CC[C@H]1OC(=O)[C@H](C)[C@H]2OC3(CCN(CCc4ccc(NC(C)=O)cc4)CC3)O[C@](C)(C[C@@H](C)CN(C)[C@H](C)[C@@H](O)[C@]1(C)O)[C@H](O[C@@H]1O[C@H](C)C[C@H](N(C)C)[C@H]1O)[C@H]2C the MIC [1] was 0.05 µg/mL (≈ 0.06 µM), the ED50 [2] was 9.6 mg/kg and the “Log CFU” value [4] was 9.7. The MIC [5] was 0.39 µg/mL (≈ 0.468 µM).

For CC[C@H]1OC(=O)[C@H](C)[C@H]2OC3(CCN(Cc4ccc(-c5ccccc5)cc4)CC3)O[C@](C)(C[C@@H](C)CN(C)[C@H](C)[C@@H](O)[C@]1(C)O)[C@H](O[C@@H]1O[C@H](C)C[C@H](N(C)C)[C@H]1O)[C@H]2C, the MIC [1] was 0.1 µg/mL (≈ 0.119 µM), the ED50 [2] was greater than 20 mg/kg and the MIC [3] was 0.2 µg/mL (≈ 0.239 µM). For the same compound, the MIC [5] was 1.56 µg/mL (≈ 1.86 µM).

Compound CC[C@H]1OC(=O)[C@H](C)[C@H]2OC3(CCN(C(=O)c4ccc(-c5ccccc5)cc4)CC3)O[C@](C)(C[C@@H](C)CN[C@H](C)[C@@H](O)[C@]1(C)O)[C@H](O[C@@H]1O[C@H](C)C[C@H](N(C)C)[C@H]1O)[C@H]2C has an MIC [1] of 0.2 µg/mL (≈ 0.239 µM), an MIC [3] of 0.78 µg/mL (≈ 0.931 µM) and an MIC [5] of 6.25 µg/mL (≈ 7.46 µM).

With CC[C@H]1OC(=O)[C@H](C)[C@H]2OC3(CCN(CCc4cccc(OC)c4)CC3)O[C@](C)(C[C@@H](C)CN(C)[C@H](C)[C@@H](O)[C@]1(C)O)[C@H](O[C@@H]1O[C@H](C)C[C@H](N(C)C)[C@H]1O)[C@H]2C the MIC [1] was 0.03 µg/mL (≈ 0.0372 µM), the ED50 [2] was greater than 20 mg/kg and the MIC [3] was 0.6 µg/mL (≈ 0.744 µM). It also gave an MIC [5] of 0.2 µg/mL (≈ 0.248 µM).

CC[C@H]1OC(=O)[C@H](C)[C@H]2OC3(CCN(Cc4ccncc4)CC3)O[C@](C)(C[C@@H](C)CN[C@H](C)[C@@H](O)[C@]1(C)O)[C@H](O[C@@H]1O[C@H](C)C[C@H](N(C)C)[C@H]1O)[C@H]2C showed an MIC [1] of 0.03 µg/mL (≈ 0.0401 µM), an ED50 [2] of 6.4 mg/kg and an MIC [3] of 1.56 µg/mL (≈ 2.08 µM). The MIC [5] was 0.78 µg/mL (≈ 1.04 µM).

CC[C@H]1OC(=O)[C@H](C)[C@H]2OC3(CCN(Cc4cccnc4)CC3)O[C@](C)(C[C@@H](C)CN(C)[C@H](C)[C@@H](O)[C@]1(C)O)[C@H](O[C@@H]1O[C@H](C)C[C@H](N(C)C)[C@H]1O)[C@H]2C showed an MIC [1] of 0.03 µg/mL (≈ 0.0393 µM), an ED50 [2] greater than 20 mg/kg and an MIC [3] of 0.78 µg/mL (≈ 1.02 µM). For the same compound, the MIC [5] was 0.39 µg/mL (≈ 0.511 µM).
